Source: PubChem BioAssay (NCI)
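Five concentrations, 48 hours, 96-well plates. TGI: total growth inhibition.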

Legend:
Assay in all cases: inhibition of tumour cell growth, NCI panel, 48 h
U251 CNS = test system: U251 CNS
MDA-MB-231 breast = test system: MDA-MB-231 breast
SF-539 CNS = test system: SF-539 CNS
OVCAR-4 ovarian = test system: OVCAR-4 ovarian
HL-60(TB) leukemia = test system: HL-60(TB) leukemia
SK-MEL-5 melanoma = test system: SK-MEL-5 melanoma
SNB-75 CNS = test system: SNB-75 CNS
SK-OV-3 ovarian = test system: SK-OV-3 ovarian
OVCAR-3 ovarian = test system: OVCAR-3 ovarian
SF-268 CNS = test system: SF-268 CNS

SMILES | TGI (U251 CNS) [µM] | TGI (MDA-MB-231 breast) [µM] | TGI (SF-539 CNS) [µM] | TGI (OVCAR-4 ovarian) [µM] | TGI (HL-60(TB) leukemia) [µM] | TGI (SK-MEL-5 melanoma) [µM] | TGI (SNB-75 CNS) [µM] | TGI (SK-OV-3 ovarian) [µM] | TGI (OVCAR-3 ovarian) [µM] | TGI (SF-268 CNS) [µM]
C=C(Cl)/C(=C\Cl)CCC(Br)C(C)C (configuration not stated) | > 100 | 45.4 | > 100 | 95.5 | > 100 | > 100 | > 100 | > 100 | > 100 | > 100
COC(=O)c1c(C)cccc1/C=C1/Cc2c(C)cccc2C1=O | > 100 | > 100 | > 100 | > 100 | > 100 | > 100 | > 100 | > 100 | > 100 | > 100
Cc1cc(-c2nc3c(O)cccc3s2)ccc1N | > 100 | 61.7 | > 100 | – | 44.5 | > 100 | > 100 | > 100 | > 100 | 75.6
O=C(NC(Cc1c[nH]c2ccccc12)C(=O)O)/C(=C/c1ccccc1O)NC(=O)c1ccccc1 (configuration not stated) | > 100 | 65 | 40.6 | > 100 | > 100 | > 100 | 38.5 | 56.7 | – | 45.6
O=C1/C(=C/c2ccccc2S)N=C(c2ccccc2)N1c1nc2ccc(Sc3ccccc3)cc2[nH]1 | 51.7 | 71.6 | – | > 100 | 52.1 | 38.6 | 93.5 | > 100 | 57.2 | > 100
COc1ccc(N2C(=O)c3c4c(c5c([nH]c6ncccc65)c3C2=O)CCC(C(C)(C)C)C4)cc1 (configuration not stated) | 98 | > 100 | > 100 | > 100 | > 100 | > 100 | 32.8 | > 100 | > 100 | > 100
Cc1ccc(S(=O)(=O)Oc2cc(N)c3c(n2)CCC3)cc1 | > 100 | > 100 | > 100 | > 100 | > 100 | > 100 | > 100 | > 100 | > 100 | > 100
C=C1[C@@H](O)C[C@@]23CC[C@@H]4[C@@]5(C)CC[C@@H](OC(C)=O)C(C)(C)[C@@H]5C[C@@H](OC5OC(COC(C)=O)C(O)C(O)C5O)[C@@]4(C)C2=CC[C@H]3[C@H]1C (some centres not stated) | 12.5 | 21.4 | 24.5 | 21 | 4.86 | 12.3 | 16.1 | 26.1 | 16.2 | 19
O=C1CCSSCCC(=O)NCCN1 | > 100 | > 100 | > 100 | > 100 | > 100 | > 100 | – | > 100 | > 100 | > 100
Cc1cc(C)c2c(=O)n(CN3CC4Nc5ccccc5C4C3)sc2n1 (configuration not stated) | > 100 | 37.5 | 39.8 | 42.2 | 63.2 | > 100 | – | > 100 | 98.5 | 54.1
O=C(CN1CCCCC1)CC(O)(C(F)(F)F)C(F)(F)F | > 100 | > 100 | > 100 | > 100 | > 100 | > 100 | > 100 | > 100 | > 100 | –
COC(=O)c1ccccc1/C=C1/Cc2ccccc2C1=O | 94.9 | > 100 | > 100 | > 100 | > 100 | 62.8 | > 100 | > 100 | > 100 | > 100
CN(C)c1ccc(-c2c(C#N)c(S)n(NS(=O)(=O)c3ccccc3)c(=O)c2C#N)cc1 | > 100 | > 100 | 53.4 | 74.2 | 85.2 | 72.2 | > 100 | > 100 | > 100 | –
CC1(C)O[C@@H]2COC(=O)[C@@H]2O1 | > 100 | > 100 | > 100 | > 100 | > 100 | > 100 | > 100 | > 100 | > 100 | > 100
CC(C)(C)N=c1n(C(C)(C)C)oc(=O)n1C(C)(C)C | > 100 | > 100 | > 100 | > 100 | > 100 | > 100 | > 100 | > 100 | > 100 | –
O=C1c2ccccc2CN1c1ccc(O)cc1 | > 100 | > 100 | > 100 | > 100 | > 100 | > 100 | – | > 100 | > 100 | > 100
O=C1NCCCc2nonc21 | > 100 | > 100 | > 100 | > 100 | > 100 | > 100 | > 100 | > 100 | > 100 | > 100
NC(CSCc1ccccc1)C(=O)O (configuration not stated) | > 100 | > 100 | – | > 100 | > 100 | > 100 | > 100 | > 100 | > 100 | > 100
CCOC1CC(=O)c2c(Br)sc(Br)c21 (configuration not stated) | 33.1 | 35.9 | 69.5 | – | 48.6 | > 100 | 35.7 | 30.4 | 28.5 | 80.8
C[n+]1c(-c2ccccc2)cc2/c(=C\c3ccc([N+](=O)[O-])cc3)c3ccccc3n21 | 19.8 | 16.1 | 34.7 | > 100 | 3.07 | > 19.7 | 15.6 | 25.4 | 15.5 | 29.1
CC(CC(C#N)(c1ccccc1)c1ccccc1)N1CCCCC1 (configuration not stated) | > 100 | 63.8 | – | > 100 | 42.3 | 33.6 | > 100 | > 100 | 44.5 | > 100
CC(=O)OC[C@]1(C(=O)C(O)c2ccoc2)[C@H](C)CC[C@@]23COC(=O)C2=CCC[C@@H]31 (some centres not stated) | > 10 | > 10 | > 10 | > 10 | > 10 | > 10 | > 10 | > 10 | > 10 | > 10
CCN(CC)CCOC(NC(C)=O)(c1ccccc1)c1ccccc1 | > 100 | > 100 | > 100 | > 100 | > 100 | > 100 | > 100 | > 100 | – | > 100
